Literature values, collected in publication PMC12281572.
Values joined by “and” are separate entries in the source; they are usually repeats but may differ in a detail not shown here. Equal values may be shown once.

Experiment: FTIR, 4-fluorophenol as donor (the pK_BHX database, per the paper)
Conditions: CCl4; 25 C

Row | pK_BHX (log10 Kf of the 1:1 H-bond complex with 4-fluorophenol, by FTIR) | SMILES
1 | 2.35 log units | CN(C)C=NCc1ccccc1
2 | 1.24 log units | CC(=Nc1cccc(Br)c1)Nc1ccccc1
3 | 0.76 log units | CCOC(=O)c1ccc(C(=O)OCC)cc1
4 | -0.37 log units | COc1ccccc1C
5 | 0.63 log units | C1COCOC1
6 | 0.75 log units | O=C(Cl)N(c1ccccc1)c1ccccc1
7 | -0.5 log units | c1ccsc1
8 | 1.63 log units | COc1ccc(N(C)C(=Nc2ccc(C)cc2)c2ccccc2)cc1
9 | 2.93 log units | c1cc(N2CCCC2)ccn1
10 | 0.23 log units | Cn1cccc1
11 | 2.06 log units | CC(C)(C)C(=O)N(C1CCCCC1)C1CCCCC1
12 | 1.83 log units | CCOC(=O)N(C)C
13 | 0.63 log units | C#CC(=O)OCC
14 | 2.68 log units | c1cc(N2CCCCC2)ccn1
15 | 0.89 log units | CN(C)S(=O)(=O)c1ccccc1
16 | 2.11 log units | CC(C)N(C)C
17 | 1.65 log units | CC(=Nc1ccccc1)N(C)c1ccccc1
18 | 1.88 log units | CN1CCN(C)CC1

Row | SMILES | pK_BHX (log10 Kf of the 1:1 H-bond complex with 4-fluorophenol, by FTIR)
19 | N | 1.74 log units
20 | C#Cc1ccccc1 | -0.44 log units and -0.6 log units
21 | CCOC(C)=O | 1.07 log units
22 | Cc1cc(C)c(C)cc1C | -0.15 log units
